# In patent US10220092B2, “Devices, systems and methods for optogenetic modulation of action potentials in target cells” (The Board of Trustees of the Leland Stanford Junior …, priority 2013, dated 2019):
# B1: ASIC3: rat acid-sensing ion channel co-expressed with CsR in oocytes (protein, UniProt O35240 1-533, looked up)
# Acid-sensing ion channel 3: MKPRSGLEEAQRRQASDIRVFASSCTMHGLGHIFGPGGLTLRRGLWATAVLLSLAAFLYQVAERVRYYGEFHHKTTLDERESHQLTFPAVTLCNINPLRRSRLTPNDLHWAGTALLGLDPAEHAAYLRALGQPPAPPGFMPSPTFDMAQLYARAGHSLEDMLLDCRYRGQPCGPENFTVIFTRMGQCYTFNSGAHGAELLTTPKGGAGNGLEIMLDVQQEEYLPIWKDMEETPFEVGIRVQIHSQDEPPAIDQLGFGAAPGHQTFVSCQQQQLSFLPPPWGDCNTASLDPDDFDPEPSDPLGSPRPRPSPPYSLIGCRLACESRYVARKCGCRMMHMPGNSPVCSPQQYKDCASPALDAMLRKDTCVCPNPCATTRYAKELSMVRIPSRASARYLARKYNRSESYITENVLVLDIFFEALNYEAVEQKAAYEVSELLGDIGGQMGLFIGASLLTILEILDYLCEVFQDRVLGYFWNRRSAQKRSGNTLLQEELNGHRTHVPHLSLGPRPPTTPCAVTKTLSASHRTCYLVTRL
# What was measured:
# [1] = tested on: acid-sensing ion channels (ASICs); assay: Pharmacological blockade of the ChR2 bystander current by the ASIC inhibitor amiloride; format: cell-based, mice
# Method: Whole cell patch clamp recordings on cortical and hippocampus neurons were performed on an upright Leica DM-LFSA microscope. Slices were continually perfused in warmed (33° C.) ACSF at a rate of 7 ml min^−1 Patching was performed in the presence of synaptic transmission blockers 6-cyano-7-nitroquinoxaline-2,3-dione (CNQX, 50 μM) and D(−)-2-amino-5-phosphonovaleric acid (APV, 25 μM) and gabazine (25 μM) (Tocris Bioscience) except for during testing of electrically-evoked synaptic responses. For amiloride experiments, amiloride was added to the ACSF at a concentration of 500 μM (Tocris). Borosilicate glass (Sutter Instruments) pipette resistances were pulled to 3-6 MΩ and filled with potassium gluconate intracellular solution (130 mM K Gluconate, 10 mM KCl, 10 mM HEPES, 10 mM EGTA, 2 mM MgCl2, pH adjusted with KOH to 7.3). Voltage and current clamp electrophysiological recordings and manipulations were performed using pClamp (Axon Instruments). Cells were held at −70 mV for all experiments. Cells with leak current greater than −300 pA or pipette resistance greater than 30 MΩ were excluded. […]
# [2] = tested on: cultured hippocampal neurons; assay: Whole cell patch clamp of cultured hippocampal neurons expressing eArch3.0-ASIC2a (Champ) constructs; format: cell-based, rat
# Description: Construct design for hippocampal neurons: The protein sequence of rat ASIC2a (Genbank accession number NM_001034014.1) was human codon optimized and synthesized by Genscript. eArch3.0 and ASIC-YFP fusions were cloned into an AAV2 backbone either under a CaMKIIα or human synapsin promoter. The trafficking signal (TS) and endoplasmic reticulum export signal (ER) sequences were appropriately added to enhance membrane trafficking. All maps and sequence details are on the website: www(dot)optogenetics(dot)org.
# Hippocampal neuron culture and calcium phosphate transfection (as per Mattis et al. (Nat Methods 2011; 9: 159-72)). Primary cultured hippocampal neurons were prepared from PO Sprague-Dawley rat pups (Charles River). CA1 and CA3 were isolated, digested with 0.4 mg ml^−1 papain (Worthington), and plated onto glass coverslips precoated with 1:30 Matrigel (Becton Dickinson Labware). […]
# Electrophysiological recordings in cultured hippocampal neurons: Whole cell patch clamp recordings were performed on cultured hippocampal neurons 4-8 days post-transfection on an upright Leica DM-LFSA microscope (Mattis et al, 2011). […] Data acquisition, current and light manipulations were controlled using pClamp (Axon Instruments) via a Digidata 1440A interface and analyzed using ClampFit software (Axon Instruments). […]
# Xenopus laevis oocytes = assay: Two-electrode voltage clamp of CsR proton pump co-expressed with rat ASICs in oocytes; format: cell-based; conditions: co-expressed with CsRT46N; 560 nm, 0.1 mM MOPS, pH 7.5
# Method: Two-component optogenetics experiments. Construct design and expression in Xenopus laevis oocytes: The coding sequences for rat ASICs (in pRSSP6009) were provided by Stefan Grander (Aachen). The pRSSP6009 plasmid coding for ASICs and the pGEM plasmid coding for Coccomyxa subellipsoidea C-169 Rhodopsin CsRT46N were linearized by MulI site in pRSSP 6009 and by NheI in pGEM. After transcription into RNA using T7 (pGEM) or SP6 (pRSSP6009) mMessage mMachine Kit (Ambion Inc, Texas, USA) 32 ng of capped RNA encoding CsR pump and one type of ASIC were co-injected into Xenopus leavis oocytes with a molar ratio of 1:1 pump:channel for ASIC1 and ASIC2a and a molar ratio of 1:2 for ASIC3. Oocytes were incubated for 3 days at 18° C. in ORI solution with 1 μM all-trans retinal (Tsunoda & Hegemann, 2009).
# Two-electrode voltage clamp measurements: TEVC measurements on X. laevis oocytes were performed using a GeneClamp 500 amplifier (Axon Instruments, Union City). Data acquisition, buffer exchange and light triggering were controlled with pClamp software via a Digidata 1322A interface (Molecular Devices, Sunnyvale). […] For pH titration, buffer solutions were adjusted with 5 mM MOPS/MES/Citrate over the range of pH 8.0 to 4.0, and were subsequently compared with photocurrents measured at 0.1 mM MOPS at pH 7.5
molecule,measurement,setting,value
N=C(N)NC(=O)c1nc(Cl)c(N)nc1N [amiloride],"Magnitude of light-evoked bystander current, relative to baseline value","[1]; 500 μM amiloride applied for 20 minutes, hippocampal ChR2 bystander neurons, 15 s light pulse",~50%
same,Membrane resistance during amiloride application,"[1]; 500 μM amiloride, absence of any illumination",increase in membrane resistance
Champ4.0: eArch3.0 and ASIC2a separated during protein translation by the ribosomal skip sequence p2A; SEQ ID NO:34,Presence and reliability of the inward ASIC-mediated current component,"[2]; head-to-head comparison, increasing molecular separation, 0.1 mM buffer",occasionally saw large ASIC currents
same,"Cell health measures (leak current, membrane resistance, pipette resistance, resting membrane potential) across groups",[2]; one-way ANOVA across 5 groups,no significant differences
B1,Inactivation in sustained light,Xenopus laevis oocytes,strong inactivation
